Assay results taken from patent US8461297B2, “Cytoplasmic malate dehydrogenase (MDH1) targeted treatment for neurodegenerative diseases” (Ramot at Tel-Aviv University, Ltd., priority 2007, dated 2013).
Ends that are not written are not given here. 5,6‑TAMRA = 5,6-carboxytetramethylrhodamine fluorescent label at the N-terminus

Legend:
Format in all cases: cell-based
[1] = tested on: WT-hSOD1-GFP-expressing NSC-34 cells; assay: Cell survival (methylene blue assay) under rotenone or low-glucose challenge, WT-hSOD1-GFP cells
Description: (§1) The functional significance of the loss of such interaction was assessed by alleviation of the rotenone (a mitochondrial inhibitor) or low-glucose challenge in NSC-34 clones expressing an inducible form of the mutant G93A SOD1-GFP as monitored by cell survival. The […] (SEQ ID NO: 1) peptide was synthesized (SBS Gentech Beijing) with 5,6-TAMRA modification (to allow detection) at the N-terminus. The TAMRA-modified peptide was dissolved in 10% acetic acid and added to cell culture medium in culture medium containing 1% ethanol. Thus, 15,000 cells (WT-hSOD1 or G93A-hSOD1) seeded in each well of a 96-well plate in DMEM, 10% serum. 24 hours later, cells were incubated with 1*10^-6M cytMDH peptide (or acetic acid/ethanol vehicle) for 4 h without serum. 1-10 micromole/L Rotenone in DMEM, 10% serum was then added for 24 hours, or medium replaced with low glucose (1 mg/ml) in DMEM with 5% serum for 72 hours. Cell survival was then assessed. It was expected that if the identified peptide interaction is resolving the gain of toxic interaction of G93A SOD1-GFP, then survival of the cells upon rotenone- or low-glucose challenge will improve.
(§2) 15,000 cells (WT-hSOD1 or G93A-hSOD1) were seeded in each well of a 96 well-plate in DMEM, 10% serum. 24 hours later, the cells were incubated with 3 mM octanoic acid with and without 1-10 micromole/L rotenone in DMEM, 10% serum for 24 hours. Or, cells were incubated with 3 mM octanoic acid and medium replaced with regular ([…]) or low (1 mg/ml) glucose in DMEM with 5% serum for 72 hours. Cell survival was then assessed. It was expected that if the gain of toxic interaction of G93A SOD1-GFP is due to inhibition of the malate-aspartate shuttle, octanoic acid will provide an alternative energy source through the alternative shunt and the survival of the cells upon rotenone or low-glucose challenge will improve.
(§3) Cell survival was assessed by the methylene blue assay. Cells were fixed with 4% formaldehyde solution for 1 h, then washed with 0.1M sodium borate buffer pH8.5, stained with 1% methylene blue for 20 min and washed with water. Cell-bound dye was eluted with 200 μl of 0.1M HCl. The optical density was assessed at 595 nm in ELISA plate reader.
(§4) The […] (SEQ ID NO: 1) peptide was synthesized (SBS Gentech Beijing) with 5,6-TAMRA modification (to allow detection) at the N-terminus, dissolved in 10% acetic acid, and diluted in cell culture medium containing 1% ethanol. Thus, 15,000 cells (WT-hSOD1 or G93A-hSOD1) seeded in each well of 96 wells plate in DMEM, 10% serum and doxycline (to induce expression of the hSOD1 proteins). 24 hours later, medium was replaced with serum free DMEM, and cells were incubated with 1 micromol/liter of the TAMRA-labeled […] peptide or vehicle (1% acetic acid/ethanol) for 4 hours. […] Cell survival was then assessed.

[2] = tested on: G93A-hSOD1-GFP-expressing NSC-34 cells; assay: Cell survival (methylene blue assay) under rotenone or low-glucose challenge, G93A-hSOD1-GFP cells
Description: as §1, §2, §3, §4

[3] = molecular target: T1, G93A-hSOD1/cytMDH complex (Homo sapiens, UniProt P00441, G94A); assay: FACS-based FRET test of peptides competing for the G93A-hSOD1-CFP/cytMDH-YFP interaction in co-transfected NSC-34 cells; conditions: myc-tagged peptide expression plasmid co-transfected at 1:1:1 ratio, excitation 405 nm, emission 530 nm
T1 construct: expressed in transfected cells; host or cells: NSC-34 cells (transient co-transfection)
T1 sequence (P00441 2-154 G94A limits assumed, one chain of several): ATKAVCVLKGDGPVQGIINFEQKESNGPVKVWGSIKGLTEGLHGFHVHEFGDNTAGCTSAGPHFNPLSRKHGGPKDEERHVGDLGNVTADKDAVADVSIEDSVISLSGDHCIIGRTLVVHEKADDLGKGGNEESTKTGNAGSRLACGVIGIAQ
Text: The screening method was based on the fluorescence resonance energy transfer (FRET) system between cyan fluorescence protein (CFP) chimera proteins and yellow fluorescence protein (YFP) chimera proteins. The present inventors designed and used this system to identify the specific interaction of G93A SOD1 with MDH1 so as to identify a motif within MDH1 that is critical for the G93A SOD1-MDH1 interaction. The agents tested were peptides derived from MDH1.
A Myc-tagged peptide library expressing small fragments of the MDH1 was prepared. MDH1 cDNA was digested with AluI or/and DpnI and the fragments were cloned so that each peptide was placed in the correct reading frame of the original protein and in frame to the human myc tag sequence. G93A SOD1-CFP and MDH1-YFP expression plasmids were transfected into NSC-34 cells with and without the myc-tagged library.
The hypothesis is that the specific MDH1-derived peptides comprising the interacting motif will compete with MDH1 for the G93A SOD1-MDH1 interaction site. In such case, the CFP and YFP fluorescence of the G93A SOD1-CFP and MDH1-YFP will still be present, but the FRET signal will be diminished. The screening studies were performed using a cell sorter (FACS) with 405 nm excitation laser and a 530/30 nm emission filter. […] RNA was extracted from the sorted cells, converted into cDNA and subjected to PCR amplification in order to amplify the peptides DNA sequences.
The DNA sequence from the sorted cells was re-cloned. Four clones were obtained, one corresponding to amino acids 14-27 of the cytMDH protein GQIAHSLLYSIGNG (SEQ ID NO: 2) and three corresponding to amino acids 217-239 of the cytMDH protein […] (SEQ ID NO: 1). The identified clones were re-analyzed in the FACS-based system to verify their ability to compete for the G93A SOD1-MDH1 interaction at 1:1:1 ratio levels. Thus, 5*10^6 NSC-34 cells were transfected with equal amounts of G93A-hSOD1-CFP and cytMDH-YFP and the suspected myc-tagged cytMDH peptide-expressing plasmids.
Ability of the 217-239 peptide to disrupt the G93A-hSOD1-cytMDH1 complex was tested by co-transfection into NSC-34 cells of constructs encoding myc-tagged 217-239 and the FRET-enabled G93A-hSOD1/cytMDH proteins, followed by FACS analysis to measure FRET.

Compound: CCCCCCCC(=O)O [octanoic acid, reference compound]
- effects of low glucose on cell viability in the presence of octanoic acid ([1]; 3 mM octanoic acid, low (1 mg/ml) glucose DMEM, 5% serum, 72 h, WT-hSOD1-GFP cells): not
- effects of rotenone on cell viability in the presence of octanoic acid ([1]; 3 mM octanoic acid, rotenone 1.25 micromol/liter for 24 h, WT-hSOD1-GFP cells): not
- effects of low glucose on cell viability in the presence of octanoic acid ([2]; 3 mM octanoic acid, low (1 mg/ml) glucose DMEM, 5% serum, 72 h, G93A-hSOD1-GFP cells): greatly diminished
- effects of rotenone on cell viability in the presence of octanoic acid ([2]; 3 mM octanoic acid, rotenone 1.25 micromol/liter for 24 h, G93A-hSOD1-GFP cells): greatly diminished

Compound: GQIAHSLLYSIGNG (listed as Mus musculus) [14-27 peptide]
- FRET signal of G93A-hSOD1-CFP/cytMDH-YFP (disruption of the complex) [3]: found not to inhibit the interaction
- FRET signal of G93A-hSOD1-CFP/cytMDH-YFP (disruption of the complex) ([3]; listed as peptide 14-27): positive FRET

Compound: SWLKGEFITTVQQRGAAVIKARK ({5,6‑TAMRA}-SWLKGEFITTVQQRGAAVIKARK; listed as Mus musculus) [217-239 peptide, amino acids 217-239 of the cytMDH protein]
- FRET signal of G93A-hSOD1-CFP/cytMDH-YFP (disruption of the complex) [3]: blocked FRET
- FRET signal of G93A-hSOD1-CFP/cytMDH-YFP (disruption of the complex) ([3]; listed as SEQ ID NO: 1): prevented the FRET
- FRET signal of G93A-hSOD1-CFP/cytMDH-YFP (disruption of the complex) ([3]; listed as peptide 217-239): negative FRET
- effects of rotenone on cell viability in the presence of peptide ([1]; 1 micromol/liter TAMRA-labeled peptide 4 h, then 0.5 micromol/L rotenone 24 h, WT-hSOD1-GFP cells): not
- effects of low glucose on cell viability in the presence of peptide ([1]; 1 micromol/liter TAMRA-labeled peptide, low glucose (1 mg/ml) DMEM, 5% serum, 72 h, WT-hSOD1 cells): not
- effects of rotenone on cell viability in the presence of peptide ([2]; 1 micromol/liter TAMRA-labeled peptide 4 h, then 0.5 micromol/L rotenone 24 h, G93A-hSOD1-GFP cells): greatly diminished
- effects of low glucose on cell viability in the presence of peptide ([2]; 1 micromol/liter TAMRA-labeled peptide, low glucose (1 mg/ml) DMEM, 5% serum, 72 h, G93A-hSOD1 cells): significantly diminished
